From PMC9090415, “Discovery of small molecule inhibitors of Plasmodium falciparum apicoplast DNA polymerase” (Journal of Enzyme Inhibition and Medicinal Chemistry, 2022)

Biological target: P. falciparum apicoplast DNA polymerase (Pf-apPOL) (Plasmodium falciparum, UniProt Q8ILY1)
Experiment: Fluorescence-based high-throughput DNA polymerase assay (molecular beacon), primary screen and dose-response
Assay type: biochemical
Details: for DNA Pol: 90 min, 10 µM; for % inhibition apPOL 180' 2.5 / % inhibition apPOL 180' 5 / % inhibition apPOL 180' 10 / % inhibition apPOL 180' 20 / % inhibition apPOL 180' 40 / % inhibition apPOL 180' 80: read at 180'
Outline: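 Single-point screening used 10 µM compound with 20 nM polymerase, 20 nM hairpin substrate and 6 µM dNTPs for 90 min at 25 °C. Confirmatory titrations (2.5–80 µM) followed fluorescence at three times, and IC50 was derived from a fit including a cooperativity term n.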

[1] = first dose-response set, concentration 10

Chain of P. falciparum apicoplast DNA polymerase (Pf-apPOL) (Q8ILY1 entry or part of it): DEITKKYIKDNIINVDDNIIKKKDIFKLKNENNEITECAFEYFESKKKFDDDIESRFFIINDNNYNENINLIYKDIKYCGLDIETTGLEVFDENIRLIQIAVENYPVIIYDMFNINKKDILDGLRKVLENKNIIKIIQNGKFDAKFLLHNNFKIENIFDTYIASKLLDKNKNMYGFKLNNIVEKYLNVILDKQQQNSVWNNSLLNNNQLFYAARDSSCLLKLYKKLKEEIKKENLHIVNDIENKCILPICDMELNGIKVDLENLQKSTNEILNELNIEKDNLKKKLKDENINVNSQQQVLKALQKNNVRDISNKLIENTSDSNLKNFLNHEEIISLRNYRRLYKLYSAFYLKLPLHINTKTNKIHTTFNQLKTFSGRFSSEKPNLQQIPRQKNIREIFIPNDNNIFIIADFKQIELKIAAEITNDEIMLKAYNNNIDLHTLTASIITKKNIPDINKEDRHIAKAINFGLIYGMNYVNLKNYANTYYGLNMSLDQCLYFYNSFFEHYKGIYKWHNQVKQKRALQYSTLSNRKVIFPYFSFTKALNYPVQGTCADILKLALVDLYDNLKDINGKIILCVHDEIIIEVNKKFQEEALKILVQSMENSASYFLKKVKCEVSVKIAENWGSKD

`CCCc1ccc(Oc2coc3cc(OC)ccc3c2=O)cc1` [KU0193249] was tested, and the “DNA Pol” value (186 hits, DNA Pol (screen value), unit not given) was 73, the “DNA Pol” value ('DNA Pol' (screen value), unit not given) was 73 and the “% inhibition Apo pol 10' 2.5” value (DRC-1, read at 10', concentration 2.5) was 7.919%. The “% inhibition Apo pol 10' 5” value (DRC-1, read at 10', concentration 5) was 6.719%, the “% inhibition Apo pol 10' 10” value (DRC-1, read at 10', concentration 10) was 11.6444% and the “% inhibition Apo pol 10' 20” value (DRC-1, read at 10', concentration 20) was 12.8685%. For the same compound, the “% inhibition Apo pol 10' 40” value (DRC-1, read at 10', concentration 40) was 28.2048%, the “% inhibition Apo pol 10' 80” value (DRC-1, read at 10', concentration 80) was 56.0479% and the “% inhibition Apol 90' 2.5” value (DRC-1, read at 90', concentration 2.5) was 14.2398%. The “% inhibition Apol 90' 5” value (DRC-1, read at 90', concentration 5) was 11.6391%, the “% inhibition Apol 90' 10” value (DRC-1, read at 90', concentration 10) was 17.4321% and the “% inhibition Apol 90' 20” value (DRC-1, read at 90', concentration 20) was 14.1885%. For the same compound, the “% inhibition Apol 90' 40” value (DRC-1, read at 90', concentration 40) was 28.8567%, the “% inhibition Apol 90' 80” value (DRC-1, read at 90', concentration 80) was 54.3218% and the “% inhibition apPOL 180' 2.5” value (DRC-1, concentration 2.5) was 21.2124%. For the same compound, the “% inhibition apPOL 180' 5” value (DRC-1, concentration 5) was 19.9497%, the “% inhibition apPOL 180' 10” value (DRC-1, concentration 10) was 25.9143% and the “% inhibition apPOL 180' 20” value (DRC-1, concentration 20) was 21.3211%. For the same compound, the “% inhibition apPOL 180' 40” value (DRC-1, concentration 40) was 35.4665%, the “% inhibition apPOL 180' 80” value (DRC-1, concentration 80) was 56.5719% and the “% inhibition Apo pol 5'” value (DRC-2, concentration 2.5) was 8%. For the same compound, the “% inhibition Apo pol 5'” value (DRC-2, concentration 5) was 12%, the “% inhibition Apo pol 5'” value (DRC-2, concentration 20) was 17% and the “% inhibition Apo pol 5'” value (DRC-2, concentration 40) was 20%. The “% inhibition Apol 40'” value (DRC-2, concentration 10) was 17%, the “% inhibition Apol 40'” value (DRC-2, concentration 20) was 20% and the “% inhibition Apol 40'” value (DRC-2, concentration 40) was 25%. The “% inhibition ApPOL 90'” value (DRC-2, concentration 10) was 17%, the “% inhibition ApPOL 90'” value (DRC-2, concentration 20) was 22% and the “% inhibition ApPOL 90'” value (DRC-2, concentration 40) was 25%. The “% inhibition apPOL 180'” value (DRC-2, concentration 5) was 8%, the “% inhibition apPOL 180'” value (DRC-2, concentration 10) was 12% and the “% inhibition apPOL 180'” value (DRC-2, concentration 40) was 22%. For the same compound, the “% inhibition Apo pol 5' 2.5” value (DRC-2, read at 5', concentration 2.5) was 8%, the “% inhibition Apo pol 5' 5” value (DRC-2, read at 5', concentration 5) was 12% and the “% inhibition Apo pol 5' 10” value (DRC-2, read at 5', concentration 10) was 13%. For the same compound, the “% inhibition Apo pol 5' 20” value (DRC-2, read at 5', concentration 20) was 17%, the “% inhibition Apo pol 5' 40” value (DRC-2, read at 5', concentration 40) was 20% and the “% inhibition Apo pol 5' 80” value (DRC-2, read at 5', concentration 80) was 36%. The “% inhibition Apol 40' 2.5” value (DRC-2, read at 40', concentration 2.5) was 6.51%, the “% inhibition Apol 40' 5” value (DRC-2, read at 40', concentration 5) was 15% and the “% inhibition Apol 40' 10” value (DRC-2, read at 40', concentration 10) was 17%. For the same compound, the “% inhibition Apol 40' 20” value (DRC-2, read at 40', concentration 20) was 20%, the “% inhibition Apol 40' 40” value (DRC-2, read at 40', concentration 40) was 25% and the “% inhibition Apol 40' 80” value (DRC-2, read at 40', concentration 80) was 47%. For the same compound, the “% inhibition ApPOL 90' 2.5” value (DRC-2, read at 90', concentration 2.5) was 4.24%, the “% inhibition ApPOL 90' 5” value (DRC-2, read at 90', concentration 5) was 14% and the “% inhibition ApPOL 90' 10” value (DRC-2, read at 90', concentration 10) was 17%. The “% inhibition ApPOL 90' 20” value (DRC-2, read at 90', concentration 20) was 22%, the “% inhibition ApPOL 90' 40” value (DRC-2, read at 90', concentration 40) was 25% and the “% inhibition ApPOL 90' 80” value (DRC-2, read at 90', concentration 80) was 51%. The “% inhibition apPOL 180' 2.5” value (DRC-2, concentration 2.5) was -0.201%, the “% inhibition apPOL 180' 5” value (DRC-2, concentration 5) was 8% and the “% inhibition apPOL 180' 10” value (DRC-2, concentration 10) was 12%. The “% inhibition apPOL 180' 20” value (DRC-2, concentration 20) was 18%, the “% inhibition apPOL 180' 40” value (DRC-2, concentration 40) was 22% and the “% inhibition apPOL 180' 80” value (DRC-2, concentration 80) was 52%.

In the case of `COc1ccc(C(=O)N2CCc3c(nc4cc(-c5ccccc5Cl)[nH]n4c3=O)C2)cn1` [Molecule 26, COc1ccc(cn1)C(=O)N1CCc2c(C1)nc1n(c2=O)[nH]c(c1)c1ccccc1Cl], the “DNA Pol” value ('DNA Pol' of the 186 hits list (primary screen value)) is reported as 36, the “DNA Pol” value (DNA Pol (primary screen value)) is reported as 36 and the “% inhibition Apo pol 10'” value (DRC-1, concentration 2.5) is reported as 0.687%. The “% inhibition Apo pol 10'” value (DRC-1, concentration 5) was 20%, the “% inhibition Apo pol 10'” value (DRC-1, concentration 10) was 48% and the “% inhibition Apo pol 10'” value (DRC-1, concentration 20) was 85%. For the same compound, the “% inhibition Apo pol 10'” value (DRC-1, concentration 40) was 91%, the “% inhibition Apo pol 10'” value (DRC-1, concentration 80) was 87% and the “% inhibition Apol 90'” value (DRC-1, concentration 2.5) was -2.83%. The “% inhibition Apol 90'” value (DRC-1, concentration 5) was 11%, the “% inhibition Apol 90'” value (DRC-1, concentration 10) was 33% and the “% inhibition Apol 90'” value (DRC-1, concentration 20) was 74%. The “% inhibition Apol 90'” value (DRC-1, concentration 40) was 82%, the “% inhibition Apol 90'” value (DRC-1, concentration 80) was 82% and the “% inhibition apPOL 180'” value (DRC-1, concentration 2.5) was -5.33%. The “% inhibition apPOL 180'” value (DRC-1, concentration 5) was 3.47%, the “% inhibition apPOL 180'” value (DRC-1, concentration 10) was 20% and the “% inhibition apPOL 180'” value (DRC-1, concentration 20) was 60%. For the same compound, the “% inhibition apPOL 180'” value (DRC-1, concentration 40) was 70%, the “% inhibition apPOL 180'” value (DRC-1, concentration 80) was 71% and the “% inhibition Apo pol 5'” value (DRC-2, concentration 2.5) was 7%. For the same compound, the “% inhibition Apo pol 5'” value (DRC-2, concentration 5) was 7%, the “% inhibition Apo pol 5'” value (DRC-2, concentration 10) was 28% and the “% inhibition Apo pol 5'” value (DRC-2, concentration 20) was 47%. The “% inhibition Apo pol 5'” value (DRC-2, concentration 40) was 54%, the “% inhibition Apo pol 5'” value (DRC-2, concentration 80) was 47% and the “% inhibition Apol 40'” value (DRC-2, concentration 2.5) was 6.48%. The “% inhibition Apol 40'” value (DRC-2, concentration 5) was 6.59%, the “% inhibition Apol 40'” value (DRC-2, concentration 10) was 30% and the “% inhibition Apol 40'” value (DRC-2, concentration 20) was 56%. The “% inhibition Apol 40'” value (DRC-2, concentration 40) was 64%, the “% inhibition Apol 40'” value (DRC-2, concentration 80) was 62% and the “% inhibition ApPOL 90'” value (DRC-2, concentration 2.5) was 6%. For the same compound, the “% inhibition ApPOL 90'” value (DRC-2, concentration 5) was 4.56%, the “% inhibition ApPOL 90'” value (DRC-2, concentration 10) was 28% and the “% inhibition ApPOL 90'” value (DRC-2, concentration 20) was 56%. The “% inhibition ApPOL 90'” value (DRC-2, concentration 40) was 63%, the “% inhibition ApPOL 90'” value (DRC-2, concentration 80) was 63% and the “% inhibition apPOL 180'” value (DRC-2, concentration 2.5) was 3.22%. The “% inhibition apPOL 180'” value (DRC-2, concentration 5) was 3%, the “% inhibition apPOL 180'” value (DRC-2, concentration 10) was 20% and the “% inhibition apPOL 180'” value (DRC-2, concentration 20) was 48%. For the same compound, the “% inhibition apPOL 180'” value (DRC-2, concentration 40) was 55%, the “% inhibition apPOL 180'” value (DRC-2, concentration 80) was 57% and the “% inhibition Apo pol 10'” value (first dose-response set, concentration 5) was 20%. For the same compound, the “% inhibition Apo pol 10'” value [1] was 48%, the “% inhibition Apol 90'” value (first dose-response set, concentration 40) was 82% and the “% inhibition Apol 90'” value (first dose-response set, concentration 80) was 82%. For the same compound, the “% inhibition apPOL 180'” value [1] was 20%.
